The source of these data is US7319109B2, “Farnesoid X receptor agonists” (Smith Kline Beecham Corporation, priority 2002, dated 2008).

Molecules are shown by their SMILES. A value given as a limit tells only on which side of the number the result lay.

The test has as its target T1, Human FXRα Ligand Binding Domain (FXRα LBD) (Homo sapiens, UniProt Q96RI1).
T1 construct: polyhistidine (N); made in house; host or cells: E. coli BL21 (DE3), pRSET-A vector
T1 sequence (Q96RI1 222-472 isoform Q96RI1-2): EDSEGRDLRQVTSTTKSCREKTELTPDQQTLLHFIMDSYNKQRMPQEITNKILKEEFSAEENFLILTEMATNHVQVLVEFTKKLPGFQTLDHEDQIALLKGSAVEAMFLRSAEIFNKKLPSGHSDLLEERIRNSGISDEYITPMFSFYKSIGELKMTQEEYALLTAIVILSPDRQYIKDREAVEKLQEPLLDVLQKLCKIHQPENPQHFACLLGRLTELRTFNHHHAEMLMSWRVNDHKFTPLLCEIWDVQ
Description: FXR Affinity Binding Assay: ligand mediated cofactor peptide (SRC-1 LCD2, 676-700) interaction, time resolved fluorescence. The conditions noted are these: FXRα LBD-APC / europium labeled SRC-1 peptide, TRF signal, at least 2 hours at room temperature; read-out: Activity (pEC50) (converted). How it is done: Determination of a ligand mediated cofactor peptide interaction to quantify ligand binding to the nuclear receptor Farnasoid X Receptor (FXR). The method measures the ability of putative ligands to modulate the interaction between the purified bacterial expressed FXRα (LBD) and a synthetic biotinylated peptide based on residues 676-700 of SRC-1(LCD2, 676-700). […] Detection of the associated complex is measured by time resolved fluorescence (TRF). The purified LBD of FXR is labeled with biotin then mixed with stoichiometric amounts of APC labeled streptavidin (Molecular Probes). The biotinylated peptide is then mixed with a ½ stoichiometric amount of europium labeled streptavidin (Wallac Inc). Each is then blocked with a 5 fold excess of biotin and allowed to equilibrate for 15 min. Equimolar amounts of receptor and peptide are mixed together and allowed to equilibrate for at least 30 min prior to the addition to either a variable or constant concentrations of the sample for which the affinity is to be determined. After equilibration, the time-resolved fluorescent signal is quantitated using a fluorescent plate reader. The affinity of the test compound is estimated from a plot of fluorescence versus concentration of test compound added.
Ligands that promote the complex formation induce a concentration-dependent increase in time-resolved fluorescent signal.
Human FXRα Ligand Binding Domain (FXRα LBD) was expressed in E.coli strain BL21 (DE3) as an amino-terminal polyhistidine tagged fusion protein. Expression was under the control of an IPTG inducible T7 promoter. DNA encoding this recombinant protein was subcloned into the pRSET-A expression vector (Invitrogen). The coding sequence of Human FXRα LBD was derived from Genbank accession number U 68233 (amino acids 222 to 472).
Routinely, 30-40 g cell paste (equivalent to 2-3 liters of the fermentation batch) was resuspended in 200-250 mL TBS, pH 7.2 (25mM Tris, 150 mM NaCl). Cells were lysed by passing 3 times through a French Press and cell debris was removed by centrifugation (30 minutes, 20,000 g, 4° C.). The cleared supernatant was filtered through course pre-filters, and TBS, pH 7.2, containing 500 mM imidazole was added to obtain a final imidazole concentration of 50 mM. This lysate was loaded onto a column (6×8 cm) packed with Sepharose [Ni^++ charged]Chelation resin (Pharmacia) and pre-equilibrated with TBS pH 7.21 50 mM imidazole. After washing to baseline absorbance with equilibration buffer, the column was washed with one column volume of TBS pH 7.2 containing 90 mM imidazole. FXRαLBD was eluted directly with 365 mM imidazole. Column fractions were pooled and dialyzed against TBS, pH 7.2, containing 0.5 mM EDTA and 5 mM DTT. The dialyzed protein sample was concentrated using Centri-prep 10 K (Amicon) and subjected to size exclusion, using a column (3×90 cm) packed with Sepharose S-75 resin (Pharmacia) pre-equilibrated with TBS, pH 7.2, containing 0.5 mM EDTA and 5 mM DTT.
Purified FXRα LBD was desalted/buffer exchanged using PD-10 gel filtration columns into PBS [100 mM NaPhosphate, pH 7.2, 150 mM NaCl]. FXRα LBD was diluted to approximately 10 μM in PBS and five-fold molar excess of NHS-LC-Biotin (Pierce) was added in a minimal volume of PBS. This solution was incubated with gentle mixing for 30 minutes at room temperature. The biotinylation modification reaction was stopped by the addition of 2000× molar excess of Tris-HCl, pH 8. The modified FXRα LBD was dialyzed against 4 buffer changes, each of at least 50 volumes, PBS containing 5 mM DTT, 2 mM EDTA and 2% sucrose.

With `CC(C)c1onc(-c2c(Cl)cccc2Cl)c1COc1ccc(NS(=O)(=O)c2cccc(C(=O)O)c2)c(Cl)c1` [Example 46, 3-{[(2-Chloro-4-{[3-(2,6-dichlorophenyl)-5-isopropylisoxazol-4-yl]methoxy}phenyl)amino]sulfonyl}benzoic acid], the EC50 is 102 to 1000 nM. Under `CC(C)c1onc(-c2c(Cl)cccc2Cl)c1COc1ccc(N(C)S(=O)(=O)c2cccc(C(=O)O)c2)c(Cl)c1` [Example 47, 3-{[(2-Chloro-4-{[3-(2,6-dichlorophenyl)-5-isopropylisoxazol-4-yl]methoxy}phenyl)-(methyl)amino]sulfonyl}benzoic acid] stands less than 100 nM; under `Cc1cc(OCc2c(-c3c(Cl)cccc3Cl)noc2C(C)C)ccc1N(C)S(=O)(=O)c1cccc(C(=O)O)c1` [Example 48, 3-{[(4-{[3-(2,6-Dichlorophenyl)-5-isopropylisoxazol-4-yl]methoxy}-2-methylphenyl)-(methyl)amino]sulfonyl}benzoic acid], less than 100 nM; under `CC(C)c1onc(-c2c(Cl)cccc2Cl)c1COc1ccc(N(C)S(=O)(=O)c2cccc(C(=O)O)c2)cc1` [Example 49, 3-{[(4-{[3-(2,6-Dichlorophenyl)-5-isopropylisoxazol-4-yl]methoxy}phenyl)(methyl)-amino]sulfonyl}benzoic acid], 102 to 1000 nM. With `CCN(c1ccc(OCc2c(-c3c(Cl)cccc3Cl)noc2C(C)C)cc1Cl)S(=O)(=O)c1cccc(C(=O)O)c1` [Example 50] the figure was less than 100 nM.

As for `CCN(c1ccc(OCc2c(-c3c(Cl)cccc3Cl)noc2C(C)C)cc1)S(=O)(=O)c1cccc(C(=O)O)c1` [Example 52, 3-{[(4-{[3-(2,6-Dichlorophenyl)-5-isopropylisoxazol-4-yl]methoxy}phenyl)(ethyl)-amino]sulfonyl}benzoic acid], the EC50 is 102 to 1000 nM.

For `COC(=O)c1ccc(S(=O)(=O)Nc2ccc(OCc3c(-c4c(Cl)cccc4Cl)noc3C(C)C)cc2Cl)cc1` [Example 53, Methyl 4-{[(2-chloro-4-{[3-(2,6-dichlorophenyl)-5-isopropylisoxazol-4-yl]methoxy}-phenyl)amino]sulfonyl}benzoate], the EC50 is 102 to 1000 nM. With `COC(=O)c1ccc(S(=O)(=O)Nc2ccc(OCc3c(-c4c(Cl)cccc4Cl)noc3C(C)C)cc2C)cc1` [Example 54, Methyl 4-{[(4-{[3-(2,6-dichlorophenyl)-5-isopropylisoxazol-4-yl]methoxy}-2-methyl-phenyl)amino]sulfonyl}benzoate] the figure was less than 100 nM; with `COC(=O)c1ccc(S(=O)(=O)Nc2ccc(OCc3c(-c4c(Cl)cccc4Cl)noc3C(C)C)cc2)cc1` [Example 55, Methyl 4-{[(4-{[3-(2,6-dichlorophenyl)-5-isopropylisoxazol-4-yl]methoxy}phenyl)-amino]sulfonyl}benzoate], 1020 to 10000 nM. Under `CC(C)c1onc(-c2c(Cl)cccc2Cl)c1COc1ccc(NS(=O)(=O)c2ccc(C(=O)O)cc2)c(Cl)c1` [Example 56, 4-{[(2-Chloro-4-{[3-(2,6-dichlorophenyl)-5-isopropylisoxazol-4-yl]methoxy}phenyl)-amino]sulfonyl}benzoic acid] stands 1020 to 10000 nM; under `Cc1cc(OCc2c(-c3c(Cl)cccc3Cl)noc2C(C)C)ccc1NS(=O)(=O)c1ccc(C(=O)O)cc1` [Example 57, 4-{[(4-{[3-(2,6-Dichlorophenyl)-5-isopropylisoxazol-4-yl]methoxy}-2-methylphenyl)-amino]sulfonyl}benzoic acid], 102 to 1000 nM. Under `CC(C)c1onc(-c2c(Cl)cccc2Cl)c1COc1ccc(NS(=O)(=O)c2ccc(C(=O)O)cc2)cc1` [Example 58, 4-{[(4-{[3-(2,6-Dichlorophenyl)-5-isopropylisoxazol-4-yl]methoxy}phenyl)amino]-sulfonyl}benzoic acid] stands 102 to 1000 nM. On to `COC(=O)c1ccc(S(=O)(=O)N(C)c2ccc(OCc3c(-c4c(Cl)cccc4Cl)noc3C(C)C)cc2C)cc1` [Example 59, Methyl 4-{[(4-{[3-(2,6-dichlorophenyl)-5-isopropylisoxazol-4-yl]methoxy}-2-methyl-phenyl)(methyl)amino]sulfonyl}benzoate], for which the EC50 is 102 to 1000 nM. Under `COC(=O)c1ccc(S(=O)(=O)N(C)c2ccc(OCc3c(-c4c(Cl)cccc4Cl)noc3C(C)C)cc2)cc1` [Example 60, Methyl 4-{[(4-{[3-(2,6-dichlorophenyl)-5-isopropylisoxazol-4-yl]methoxy}phenyl)-(methyl)amino]sulfonyl}benzoate] stands 1020 to 10000 nM; under `CCN(c1ccc(OCc2c(-c3c(Cl)cccc3Cl)noc2C(C)C)cc1)S(=O)(=O)c1ccc(C(=O)OC)cc1` [Example 61, Methyl 4-{[(4-{[3-(2,6-dichlorophenyl)-5-isopropylisoxazol-4-yl]methoxy}phenyl)-(ethyl)amino]sulfonyl}benzoate], 1020 to 10000 nM; under `CC(C)c1onc(-c2c(Cl)cccc2Cl)c1COc1ccc(N(C)S(=O)(=O)c2ccc(C(=O)O)cc2)c(Cl)c1` [Example 62, 4-{[(2-Chloro-4-{[3-(2,6-dichlorophenyl)-5-isopropylisoxazol-4-yl]methoxy}phenyl)-(methyl)amino]sulfonyl}benzoic acid], less than 100 nM. `Cc1cc(OCc2c(-c3c(Cl)cccc3Cl)noc2C(C)C)ccc1N(C)S(=O)(=O)c1ccc(C(=O)O)cc1` [Example 63, 4-{[(4-{[3-(2,6-Dichlorophenyl)-5-isopropylisoxazol-4-yl]methoxy}-2-methylphenyl)-(methyl)amino]sulfonyl}benzoic acid]: the EC50 is 102 to 1000 nM. With `CC(C)c1onc(-c2c(Cl)cccc2Cl)c1COc1ccc(N(C)S(=O)(=O)c2ccc(C(=O)O)cc2)cc1` [Example 64, 4-{[(4-{[3-(2,6-Dichlorophenyl)-5-isopropylisoxazol-4-yl]methoxy}phenyl)(methyl)-amino]sulfonyl}benzoic acid] the figure was 102 to 1000 nM. Under `CCN(c1ccc(OCc2c(-c3c(Cl)cccc3Cl)noc2C(C)C)cc1Cl)S(=O)(=O)c1ccc(C(=O)O)cc1` [Example 65, 4-{[(2-Chloro-4-{[3-(2,6-dichlorophenyl)-5-isopropylisoxazol-4-yl]methoxy}phenyl)-(ethyl)amino]sulfonyl}benzoic acid] stands less than 100 nM. As for `CCN(c1ccc(OCc2c(-c3c(Cl)cccc3Cl)noc2C(C)C)cc1C)S(=O)(=O)c1ccc(C(=O)O)cc1` [Example 66, 4-{[(4-{[3-(2,6-Dichlorophenyl)-5-isopropylisoxazol-4-yl]methoxy}-2-methylphenyl)-(ethyl)amino]sulfonyl}benzoic acid], the EC50 is 102 to 1000 nM. For `CCN(c1ccc(OCc2c(-c3c(Cl)cccc3Cl)noc2C(C)C)cc1)S(=O)(=O)c1ccc(C(=O)O)cc1` [Example 67, 4-{[(4-{[3-(2,6-Dichlorophenyl)-5-isopropylisoxazol-4-yl]methoxy}phenyl)(ethyl)amino]-sulfonyl}benzoic acid], the EC50 was 102 to 1000 nM.

Regarding `CC(C)c1onc(-c2ccccc2OC(F)(F)F)c1COc1ccc(NS(=O)(=O)c2cccc(C(=O)O)c2)c(Cl)c1` [Example 68, 3-({[2-Chloro-4-({5-isopropyl-3-[2-(trifluoromethoxy)phenyl]isoxazol-4-yl}methoxy)-phenyl]amino}sulfonyl)benzoic acid], the EC50 was 1020 to 10000 nM.
